In patent US20250268821A1 (AVALYN PHARMA INC., priority 2022, published 2025):
Where two headings read alike, the source gives them in different places. One block for each molecule: values may come before it.

Assays:
[1] = Particle size distribution by laser diffraction (Malvern Mastersizer 3000); format: physicochemical; conditions: for PSD D10 / PSD D50 / PSD D90: micronised API after jet milling
Protocol: Particle size distribution was measured using a Malvern Mastersizer 3000. The sample for analysis (10 mg) was suspended in 0.1% lecithin in isooctane (10 mL) and sonicated to disperse the particles prior to measurement. A single sample was prepared for each measurement.
Two batches were prepared and particle size distribution measured using a Mastersizer 3000 (Table 8).

[2] = SEM, XRPD and overall stability assessment of micronised drug substance; format: physicochemical; conditions: 1 month 25°C/60% RH and 40°C/75% RH, then four months laboratory conditions
Protocol: Scanning electron microscopy and x-ray powder diffraction were performed at the University of Bath.
SEM images were recorded (FIGS. 1 and 2) and the polymorphic stability was assessed by XRPD (FIGS. 3 and 4) and DSC (FIG. 6). The characterization was then repeated after a further four months at laboratory conditions.

[3] = Moisture content by Karl Fischer coulometry; format: physicochemical
Protocol: Three assay determinations were made for each assay and the mean value reported. Moisture content was measured by Karl Fischer coulometry using a Metrohm 851 Tritrando coulometer and sample oven. 50 mg of each sample was heated to 80° C. Lactose monohydrate was used as a bracketing standard. Single measurements were made for each sample. The emitted dose was measured using Dosage Unit Sampling Apparatus (DUSA) at 100 L/min. The samples were recovered using 50 mL of diluent. Ten determinations were performed and mean value reported

[4] = Pirfenidone-nintedanib interaction: physical stability of nintedanib solution in 67 mM sodium chloride; format: physicochemical; conditions: 0.25 mg/mL nintedanib, about 67 mM sodium chloride
[5] = in vivo; cited from earlier work
[6] = Sheep pharmacokinetics (ELF and plasma): nebulized inhaled nintedanib, fixed combination with pirfenidone, oral nintedanib; format: in vivo; conditions: for Cmax / AUC / half-life / Tmax: female, Merino cross-bred, sheep
Protocol: All animals had received standard vaccinations and were treated orally with anthelminthic (in line with standard management practices) prior to arrival at the animal facility to eliminate any worm parasites before experimentation. Experimental animals were rotated between indoor small group pen housing and metabolism cages under controlled ambient conditions (20-22° C.) and maintained on a 12 h light/dark throughout the experimental period. […] All formulations used in this study were stored at room temperature (RT) and protected from light prior to use; drugs were prepared on day of use. Sheep arrived into the facility as one group and were acclimatized over 2-3 weeks (group housing to indoor cage/pens) prior to experimentation. […] Group 1 sheep also received Treatment 1b, an addition/modification to the original study protocol. Treatments were administered over Weeks 3-9 of the study; each experimental Treatment was performed over a one week period in either Group 1 or Group 2 sheep (e.g., one group received Treatment while the other group was rested). Group 1 and Group 2 sheep were allocated separate sampling schedules for peripheral blood and bronchoalveolar lavage fluid (BALF) collections (Table 16). For nebulized aerosol drug administration to the lungs (inhalation dosing), a lubricated cuffed endotracheal (ET) tube (Portex, 7.0-8.0 mm internal diameter) was inserted via the nasal passage (guided by a fibre-optic endoscope) into the trachea. […] Respiration was set to 20 breaths/min, 50% inspiration and a tidal volume of 350 mL. Filters (Hudson RCl, NC, USA) were placed in the expiratory line to collect any expired drug dose. Following drug administration all lines, filters and nebulizer components were rinsed with 50 mL sterile saline to collect any remaining or expired dose. Washout sample aliquots (500 μl) were frozen on dry ice in 1.5 mL Eppendorf tubes, then stored at −80° C. prior to shipment for drug content analyses. Oral drug administration (Treatment 3) followed the procedure as detailed below (oral dosing optimization). A feeding tube (7 mm internal diameter) was inserted via the nasal passage (guided by a fibre-optic endoscope) into the upper region of the esophagus. […] Blood samples collected prior to and following drug administration (Table 16) were placed into K3EDTA-coated tubes. […] BALF samples were collected prior to and following drug administration ([…]). Sampling was carried out by intra-lung infusion of 25 ml of sterile saline via a catheter through the biopsy port of the bronchoscope, followed by immediate retrieval of the BALF sample into the collection syringe. BALF was collected from separate lung segments/lobes to avoid contamination between sampling time-points: the right apical lobe (RA) was used for all pre-dose sampling and post-dose samples were collected from right middle (RM); right caudal (RC); left caudal (LC); left middle (LM); and left apical (LA) lung lobes. BALF sampling details (volumes, exact time of collection) were recorded and samples immediately frozen on dry ice, then stored at −80° C. prior to shipment for drug content analyses.

[7] = previously known; various salt forms; cited from earlier work
[8] = molecular target: Lyn (Homo sapiens, UniProt P07948); conditions: cited from earlier work
Sequence of Lyn (P07948 whole entry, species assumed): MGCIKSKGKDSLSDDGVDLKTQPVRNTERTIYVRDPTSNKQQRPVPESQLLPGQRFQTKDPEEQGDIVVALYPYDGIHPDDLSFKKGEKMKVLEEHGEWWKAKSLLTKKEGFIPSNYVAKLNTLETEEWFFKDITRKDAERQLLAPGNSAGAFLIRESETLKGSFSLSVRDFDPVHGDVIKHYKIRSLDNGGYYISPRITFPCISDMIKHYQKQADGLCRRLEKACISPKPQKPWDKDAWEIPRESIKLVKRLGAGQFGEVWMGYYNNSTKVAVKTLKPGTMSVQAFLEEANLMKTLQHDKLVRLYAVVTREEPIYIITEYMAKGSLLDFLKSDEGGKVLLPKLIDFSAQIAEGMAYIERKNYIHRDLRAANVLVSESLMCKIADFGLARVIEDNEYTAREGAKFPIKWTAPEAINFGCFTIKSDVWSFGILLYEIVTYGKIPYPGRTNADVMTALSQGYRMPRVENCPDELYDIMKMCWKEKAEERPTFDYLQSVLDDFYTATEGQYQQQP

[9] = Clinical study in healthy volunteers: inhaled nebulized vs oral nintedanib (ELF and plasma pharmacokinetics, safety); format: in vivo; conditions: human
Text: To characterize how dry powder nintedanib may perform in humans, a clinical study was first conducted comparing inhaled nebulized and oral nintedanib in healthy volunteers.

[10] = molecular target: Src (Homo sapiens, UniProt P12931); conditions: cited from earlier work
Sequence of Src (P12931 whole entry, species assumed): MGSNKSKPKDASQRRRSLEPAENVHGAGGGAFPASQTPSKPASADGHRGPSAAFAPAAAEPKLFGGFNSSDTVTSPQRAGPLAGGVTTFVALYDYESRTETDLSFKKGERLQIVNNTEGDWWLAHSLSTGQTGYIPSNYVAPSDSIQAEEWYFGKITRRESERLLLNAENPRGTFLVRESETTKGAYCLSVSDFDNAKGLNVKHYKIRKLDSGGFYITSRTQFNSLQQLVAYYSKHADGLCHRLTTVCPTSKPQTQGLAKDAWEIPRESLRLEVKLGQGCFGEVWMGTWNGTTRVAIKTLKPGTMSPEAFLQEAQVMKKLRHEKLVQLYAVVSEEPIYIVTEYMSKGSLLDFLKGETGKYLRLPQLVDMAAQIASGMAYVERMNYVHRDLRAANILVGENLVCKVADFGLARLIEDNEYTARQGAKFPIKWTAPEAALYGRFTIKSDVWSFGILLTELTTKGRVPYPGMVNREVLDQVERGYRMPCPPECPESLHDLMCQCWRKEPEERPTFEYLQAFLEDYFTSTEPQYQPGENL

[11] = molecular target: T1, Flt-3 (Homo sapiens, UniProt P36888); conditions: cited from earlier work
T1 sequence (P36888 27-993): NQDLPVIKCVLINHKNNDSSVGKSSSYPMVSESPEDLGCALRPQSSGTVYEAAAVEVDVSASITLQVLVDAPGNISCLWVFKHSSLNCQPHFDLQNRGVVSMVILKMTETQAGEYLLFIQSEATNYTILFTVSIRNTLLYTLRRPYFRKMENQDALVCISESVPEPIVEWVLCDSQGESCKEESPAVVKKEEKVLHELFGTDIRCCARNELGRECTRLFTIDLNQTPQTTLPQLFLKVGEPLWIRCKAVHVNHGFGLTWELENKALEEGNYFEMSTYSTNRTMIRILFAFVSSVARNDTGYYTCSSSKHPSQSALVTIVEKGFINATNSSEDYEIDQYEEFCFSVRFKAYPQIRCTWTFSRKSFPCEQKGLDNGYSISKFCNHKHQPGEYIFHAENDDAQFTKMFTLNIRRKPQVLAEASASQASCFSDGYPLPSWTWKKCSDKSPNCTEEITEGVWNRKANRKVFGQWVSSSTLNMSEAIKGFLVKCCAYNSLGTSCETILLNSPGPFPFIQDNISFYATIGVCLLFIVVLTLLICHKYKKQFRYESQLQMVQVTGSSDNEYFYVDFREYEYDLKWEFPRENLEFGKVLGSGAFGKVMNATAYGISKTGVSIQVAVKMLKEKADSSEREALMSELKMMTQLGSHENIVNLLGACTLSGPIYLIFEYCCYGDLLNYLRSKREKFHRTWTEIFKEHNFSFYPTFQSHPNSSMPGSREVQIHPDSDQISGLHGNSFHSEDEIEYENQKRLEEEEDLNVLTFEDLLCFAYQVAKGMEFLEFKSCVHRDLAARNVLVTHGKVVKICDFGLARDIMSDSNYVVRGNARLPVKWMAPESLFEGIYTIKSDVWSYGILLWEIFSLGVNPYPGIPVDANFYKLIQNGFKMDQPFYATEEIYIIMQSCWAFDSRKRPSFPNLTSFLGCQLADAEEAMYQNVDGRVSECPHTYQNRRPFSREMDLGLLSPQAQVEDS

[12] = +4 months at laboratory conditions
[13] = inhaled nebulized, 2 mg, IPD = immediate post dose

- PSD D10 [1]: 0.04 μm
- PSD D50 [1]: 1.03 μm
- PSD D90 [1]: 2.66 μm
Compound: Br.COC(=O)c1ccc2c(c1)NC(=O)/C2=C(\Nc1ccc(N(C)C(=O)CN2CCN(C)CC2)cc1)c1ccccc1 [Batch 1]

- PSD D10 [1]: 0.60 μm
- PSD D50 [1]: 1.51 μm
- PSD D90 [1]: 2.87 μm
Compound: Br.COC(=O)c1ccc2c(c1)NC(=O)/C2=C(\Nc1ccc(N(C)C(=O)CN2CCN(C)CC2)cc1)c1ccccc1 [Batch 2]

- stability of micronised drug substance (PSD, moisture, SEM, XRPD, DSC) [2]: did not change during the study
- Water Content ([3]; 1 month 25/60): 5.3%
- Water Content ([3]; 1 month 40/75): 5.2%
- Water Content [3, 12]: 4.7%
- Water Content ([3]; T0): 5.3%
- D10 ([1]; 1 month 25/60): 0.6 mcm
- D50 ([1]; 1 month 25/60): 1.6 mcm
- D90 ([1]; 1 month 25/60): 3.0 mcm
- D10 ([1]; 1 month 40/75): 0.6 mcm
- D50 ([1]; 1 month 40/75): 1.5 mcm
- D90 ([1]; 1 month 40/75): 2.6 mcm
- D10 [1, 12]: 0.6 mcm
- D50 [1, 12]: 1.5 mcm
- D90 [1, 12]: 2.9 mcm
- D10 ([1]; T0): 0.5 mcm
- D50 ([1]; T0): 1.5 mcm
- D90 ([1]; T0): 2.8 mcm
Compound: COC(=O)c1ccc2c(c1)NC(=O)/C2=C(\Nc1ccc(N(C)C(=O)CN2CCN(C)CC2)cc1)c1ccccc1 [Micronised Nintedanib HBr]

- pirfenidone parts per 1 part nintedanib (weight by weight) that stabilizes nintedanib in solution [4]: greater than 30 parts
- Cmax ([6]; epithelial lining fluid (ELF), inhaled or intranasal, 0.06 mg/kg, inhaled nebulized liquid, 2 mg (0.06 mg/kg), read-out: ELF Cmax): 7380 ng/mL
- Cmax ([6]; epithelial lining fluid (ELF), inhaled or intranasal, 0.06 mg/kg, inhaled nebulized monotherapy, 2 mg (0.06 mg/kg), Table 19, read-out: ELF Cmax): 7880 ng/mL
- AUC ([6]; epithelial lining fluid (ELF), inhaled or intranasal, 2 mg, inhaled nebulized monotherapy, 2 mg, Table 19, read-out: ELF AUC): 7300 ng·h/mL
- AUC ([6]; epithelial lining fluid (ELF), inhaled or intranasal, 2 mg, inhaled nebulized, 2 mg, read-out: ELF AUC): 5400 ng·h/mL
- half-life ([6]; epithelial lining fluid (ELF), inhaled or intranasal, inhaled nebulized, 2 mg, read-out: ELF T1/2 (α) (converted)): 0.25 h
- Cmax ([6]; epithelial lining fluid (ELF), po, 2.14 mg/kg, oral, 75 mg (2.14 mg/kg), 3 mg/mL in water, read-out: ELF Cmax): 74 ng/mL
- AUC ([6]; epithelial lining fluid (ELF), po, 75 mg, oral, 75 mg, read-out: ELF AUC): 1200 ng·h/mL
- half-life ([6]; epithelial lining fluid (ELF), oral, 75 mg, read-out: ELF T1/2 (converted)): 10 h
- Tmax ([6]; epithelial lining fluid (ELF), oral, 75 mg, read-out: ELF Tmax): 10 h
- AUC ([6]; plasma, inhaled or intranasal, 2 mg, inhaled nebulized monotherapy, 2 mg, Table 19, read-out: Plasma AUC): 4 ng·h/mL
- Cmax ([6]; plasma, inhaled or intranasal, 2 mg, inhaled nebulized monotherapy, 2 mg, Table 19, read-out: Plasma Cmax): 3.9 ng/mL
- AUC ([6]; plasma, inhaled or intranasal, 2 mg, inhaled nebulized, 2 mg, read-out: Plasma AUC): 7 ng·h/mL
- Cmax ([6]; plasma, inhaled or intranasal, 2 mg, inhaled nebulized, 2 mg, read-out: Plasma Cmax): 5.9 ng/mL
- half-life ([6]; plasma, inhaled or intranasal, inhaled nebulized, 2 mg, read-out: Plasma T1/2 (α) (converted)): 0.25 h
- AUC ([6]; plasma, po, 75 mg, oral, 75 mg, read-out: Plasma AUC): 58 ng·h/mL
- Cmax ([6]; plasma, po, 75 mg, oral, 75 mg, read-out: Plasma Cmax): 3.6 ng/mL
- half-life ([6]; plasma, oral, 75 mg, read-out: Plasma T1/2 (converted)): 10 h
- Tmax ([6]; plasma, oral, 75 mg, read-out: Plasma Tmax): 9 h
- ELF Tmax [6, 13]: IPD^b
- Plasma Tmax [6, 13]: IPD^b
Compound: COC(=O)c1ccc2c(c1)NC(=O)/C2=C(\Nc1ccc(N(C)C(=O)CN2CCN(C)CC2)cc1)c1ccccc1 [Nintedanib, methyl (3Z)-3-[[4-[methyl-[2-(4-methylpiperazin-1-yl)acetyl]amino]anilino]-phenylmethylidene]-2-oxo-1H-indole-6-carboxylate]
- fraction of administered nintedanib excreted in the urine [5]: About 80%
- adverse responses to oral dosing ([6]; 75 mg oral with glucose chaser): without any adverse responses observed
- sodium chloride concentration at which nintedanib is physically unstable in solution [7]: ≥ 30 mM
- inhibition [8]: inhibited
- AUC ([9]; epithelial lining fluid (ELF), inhaled or intranasal, inhaled nebulized liquid 2 mg, read-out: ELF AUC): 3400 ng·h/mL
- Cmax ([9]; epithelial lining fluid (ELF), inhaled or intranasal, inhaled nebulized liquid 2 mg, read-out: ELF Cmax): 4660 ng/mL
- AUC ([9]; epithelial lining fluid (ELF), oral tablet 150 mg, read-out: ELF AUC): 1200 ng·h/mL
- Cmax ([9]; epithelial lining fluid (ELF), oral tablet 150 mg, read-out: ELF Cmax): 72.7 ng/mL
- Tmax ([9]; plasma, inhaled or intranasal, inhaled nebulized liquid 2 mg): 0.2 h
- AUC ([9]; plasma, inhaled or intranasal, inhaled nebulized liquid 2 mg, read-out: Plasma AUC): 4 ng·h/mL
- Cmax ([9]; plasma, inhaled or intranasal, inhaled nebulized liquid 2 mg, read-out: Plasma Cmax): 2.8 ng/mL
- Tmax ([9]; plasma, oral tablet 150 mg): 7.8 h
- AUC ([9]; plasma, oral tablet 150 mg, read-out: Plasma AUC): 163 ng·h/mL
- Cmax ([9]; plasma, oral tablet 150 mg, read-out: Plasma Cmax): 13.5 ng/mL
- inhibition [10]: inhibited
- inhibition [11]: inhibited
